Structures are written as SMILES. Some results are limits rather than exact numbers.

System in one data set: not given
Test: not given
Settings: not given
As usually defined, the melting point is the temperature of the solid-liquid transition. In the case of `CCSc1cc(C(F)(F)F)ccc1-n1nnc(-c2ccc(C(F)(F)F)cc2)c1C` [Compound 4-5, 1-(2-(Ethylthio)-4-(trifluoromethyl)phenyl)-5-methyl-4-(4-(trifluoromethyl)phenyl)-1H-1,2,3-triazole], the melting point lay in the range of 79 to 80 °C.

On to `CCS(=O)(=O)c1cc(C(F)(F)F)ccc1-n1nnc(-c2ccc(C(F)(F)F)cc2)c1C` [Compound 4-6, 1-(2-(Ethylsulfonyl)-4-(trifluoromethyl)phenyl)-5-methyl-4-(4-(trifluoromethyl)phenyl)-1H-1,2,3-triazole], for which the melting point lay in the range of 154 to 156 °C.

For the molecule `CCSc1cc(C(F)(F)F)ccc1-n1cc(-c2ccc(OC(F)(F)F)cc2)nn1` [Compound 4-7, 1-(2-(Ethylthio)-4-(trifluoromethyl)phenyl)-4-(4-(trifluoromethoxy)phenyl)-1H-1,2,3-triazole], the melting point was 110 to 111 °C.

In the case of `CCS(=O)(=O)c1cc(C(F)(F)F)ccc1-n1cc(-c2ccc(OC(F)(F)F)cc2)nn1` [Compound 4-8, 1-(2-(Ethylsulfonyl)-4-(trifluoromethyl)phenyl)-4-(4-(trifluoromethoxy)phenyl)-1H-1,2,3-triazole], the melting point was 178 to 179 °C.

For another data set, the system named is Pseudaletia separata. In words: Efficacy test against Pseudaletia separata (artificial diet). The data set is classed as in vivo. The conditions noted are these: 1 μl emulsion (I) (5% active ingredient) mixed in 0.8 g artificial diet; second-instar larvae; 25° C.; fifth day. As for the experimental part: (§1) 5 parts of the compound of the present invention, 93.6 parts of dimethylformamide, and 1.4 parts of polyoxyethylene alkylaryl ether were mixed and dissolved to prepare an emulsion (I) of 5% of the active ingredient.
(§2) The insect mortality rate and the control rate were calculated by the following formula. Insect mortality rate (%)=(number of dead insects/number of sample insects)×100 Prevention rate=[1−(Nt)/(Nc)]×100
0.8 g of commercially available artificial diet (Insecta US, manufactured by Nosan Corporation) and 1 μl of emulsion (1) were well mixed and 0.2 g of the resulting mixture was packed in a plastic test container (1.4 ml) per each treatment group to prepare test feeds.
2 second-instar larvae of Pseudaletia separata were inoculated into each treatment group and sealed with a plastic lid. The plastic test containers were placed in a thermostatic chamber with a temperature of 25° C., and the insect mortality rate and the food intake amount were investigated on the fifth day. The test was repeated twice.
Further, a test under the same conditions except that the compound of the present invention was removed from emulsion (I) was conducted as a solvent control group.
In the case of `CCS(=O)(=O)c1cccnc1-n1ncc(-c2ccc(OC(F)(F)F)cc2)c1N` [Compound 2-10], the “food intake amount in ratio to the solvent control group” value was at most 10%.

The same data set, now with this note: in vivo.
`CCSc1cc(C(F)(F)F)ccc1-n1cc(-c2ccc(C(F)(F)F)cc2)cn1` [Compound 1-1] showed an insect mortality rate of 100%.

`CCS(=O)(=O)c1cc(C(F)(F)F)ccc1-n1cc(-c2ccc(C(F)(F)F)cc2)cn1` [Compound 1-2] gave an insect mortality rate of 100%.

The molecule `CCSc1cc(C(F)(F)F)ccc1-n1ncc(-c2ccc(C(F)(F)F)cc2)c1N` [Compound 1-4] showed an insect mortality rate of 100%.

`CCS(=O)(=O)c1cc(C(F)(F)F)ccc1-n1ncc(-c2ccc(C(F)(F)F)cc2)c1N` [Compound 1-5] registered an insect mortality rate of 100%.

With `CC[S+]([O-])c1cc(C(F)(F)F)ccc1-n1ncc(-c2ccc(C(F)(F)F)cc2)c1C` (stereo not shown) [Compound 1-9], the insect mortality rate was 100%.

`CCS(=O)(=O)c1cc(C(F)(F)F)ccc1-n1cc(-c2ccc(OC(F)(F)F)cc2)cn1` [Compound 1-14]: the insect mortality rate came to 100%.

For the molecule `CCS(=O)(=O)c1cc(C(F)(F)F)ccc1-n1cc(-c2ccc(C(F)(F)F)nc2)cn1` [Compound 1-15], the insect mortality rate was 100%.

`CCS(=O)(=O)c1cc(C(F)(F)F)ccc1-n1cc(-c2ccc(C(F)(F)F)cc2F)cn1` [Compound 1-16] gave an insect mortality rate of 100%.

With `CCS(=O)(=O)c1cc(C(F)(F)F)ccc1-n1ncc(-c2ccc(OC(F)(F)F)cc2)c1C` [Compound 1-19], the insect mortality rate was found to be 100%.

With `CCS(=O)(=O)c1cc(C(F)(F)F)ccc1-n1ncc(-c2ccc(OC(F)(F)F)cc2)c1Br` [Compound 1-20], the insect mortality rate is 100%.

`CCS(=O)(=O)c1cc(C(F)(F)F)ccc1-n1cc(-c2ccc(C(F)(F)C(F)(F)F)cc2)cn1` [Compound 1-22] gave an insect mortality rate of 100%.

Molecule `CCS(=O)(=O)c1cc(C(F)(F)F)ccc1-n1ncc(-c2ccc(OC(F)(F)F)cc2)c1F` [Compound 1-23] had an insect mortality rate of 100%.

As to `CCS(=O)(=O)c1cc(C(F)(F)F)ccc1-n1ncc(-c2ccc(C(F)(F)F)nc2)c1C` [Compound 1-24], the insect mortality rate was 100%.

Regarding `CCS(=O)(=O)c1cc(C(F)(F)F)ccc1-n1ncc(-c2ccc(C(F)(F)F)nc2)c1N` [Compound 1-25], the insect mortality rate worked out at 100%.

On to `CCS(=O)(=O)c1cc(C(F)(F)F)ccc1-n1ncc(-c2cc(C(F)(F)F)cc(C(F)(F)F)c2)c1C` [Compound 1-26], for which the insect mortality rate was 100%.

With `CCS(=O)(=O)c1cc(C(F)(F)F)ccc1-n1cc(-c2cc(C(F)(F)F)cc(C(F)(F)F)c2)cn1` [Compound 1-27], the insect mortality rate is recorded as 100%.

As for `CCS(=O)(=O)c1cc(C(F)(F)F)ccc1-n1ncc(-c2cc(C(F)(F)F)cc(C(F)(F)F)c2)c1N` [Compound 1-28], the insect mortality rate was found to be 100%.

Molecule `CCS(=O)(=O)c1cc(C(F)(F)F)ccc1-n1ncc(-c2cc(C(F)(F)F)cc(C(F)(F)F)c2)c1I` [Compound 1-30] came in with an insect mortality rate of 100%.

In turn, `CCS(=O)(=O)c1cc(C(F)(F)F)ccc1-n1ncc(-c2ccc(C(F)(F)C(F)(F)F)cc2)c1N` [Compound 1-31] had an insect mortality rate of 100%.

As for `CCS(=O)(=O)c1cc(C(F)(F)F)ccc1-n1ncc(-c2ccc(SC(F)(F)F)cc2)c1N` [Compound 1-32], the insect mortality rate is 100%.

The molecule `CCS(=O)(=O)c1cc(C(F)(F)F)ccc1-n1ncc(-c2cccc(OC(F)(F)F)c2)c1N` [Compound 1-34] gave an insect mortality rate of 100%.

In turn, `CCS(=O)(=O)c1cc(C(F)(F)F)ccc1-n1ncc(-c2ccc(C(F)(C(F)(F)F)C(F)(F)F)cc2)c1N` [Compound 1-35] came in with an insect mortality rate of 100%.

With `CCS(=O)(=O)c1cc(C(F)(F)F)ccc1-n1ncc(-c2ccc(C(F)(F)F)c(Cl)c2)c1N` [Compound 1-36], the insect mortality rate is given as 100%.

In the case of `CCS(=O)(=O)c1cc(C(F)(F)F)ccc1-n1ncc(-c2ccc(OC(F)(F)F)c(Cl)c2)c1N` [Compound 1-38], the insect mortality rate is 100%.

In turn, `CCS(=O)(=O)c1cc(C(F)(F)F)ccc1-n1ncc(-c2ccc(C(F)(F)C(F)(F)F)nc2)c1C` [Compound 1-47] had an insect mortality rate of 100%.

Molecule `CCS(=O)(=O)c1cc(C(F)(F)F)ccc1-n1cc(-n2cc(C(F)(F)F)cn2)cn1` [Compound 1-50] had an insect mortality rate of 100%.

`CCS(=O)(=O)c1cc(C(F)(F)F)ccc1-n1cc(-n2cc(C(F)(F)C(F)(F)F)cn2)cn1` [Compound 1-51]: the insect mortality rate worked out at 100%.

For `CCS(=O)(=O)c1cc(C(F)(F)F)ccc1-n1ncc(-c2ccc(C(F)(F)C(F)(F)F)nc2)c1C#N` [Compound 1-52], the insect mortality rate was determined as 100%.

As to `CCS(=O)(=O)c1cc(C(F)(F)F)cnc1-n1ncc(-c2ccc(OC(F)(F)F)cc2)c1N` [Compound 2-4], the insect mortality rate amounted to 100%.

Take `CCS(=O)(=O)c1cc(C(F)(F)F)cnc1-n1ncc(-c2ccc(C(F)(F)F)nc2)c1C` [Compound 2-5]: the insect mortality rate is on record as 100%.

For `CCS(=O)(=O)c1cc(C(F)(F)F)cnc1-n1cc(-c2ccc(OC(F)(F)F)cc2)cn1` [Compound 2-6], the insect mortality rate is recorded as 100%.

Molecule `CCS(=O)(=O)c1cc(C(F)(F)F)cnc1-n1ncc(-c2ccc(OC(F)(F)F)cc2)c1C` [Compound 2-7] yielded an insect mortality rate of 100%.

Regarding `CCS(=O)(=O)c1cccnc1-n1ncc(-c2ccc(OC(F)(F)F)cc2)c1C` [Compound 2-8], the insect mortality rate stood at 100%.

`CCS(=O)(=O)c1cccnc1-n1ncc(-c2ccc(C(F)(F)C(F)(F)F)cc2)c1C` [Compound 2-9] gave an insect mortality rate of 100%.

`CCS(=O)(=O)c1cccnc1-n1ncc(-c2ccc(OC(F)(F)F)cc2)c1N` [Compound 2-10] returned an insect mortality rate of 100%.

Take `CCS(=O)(=O)c1cccnc1-n1ncc(-c2ccc(C(F)(F)C(F)(F)F)cc2)c1N` [Compound 2-11]: the insect mortality rate was 100%.

Regarding `CCS(=O)(=O)c1cccnc1-n1ncc(-c2ccc(SC(F)(F)F)cc2)c1N` [Compound 2-12], the insect mortality rate was 100%.

Molecule `CCS(=O)(=O)c1cccnc1-n1ncc(-c2ccc(C(F)(F)C(F)(F)F)nc2)c1C` [Compound 2-16] returned an insect mortality rate of 100%.

The molecule `CCS(=O)(=O)c1cc(C(F)(F)F)ccc1-c1cnn(-c2ccc(C(F)(F)F)cc2)c1Br` [Compound 3-3] showed an insect mortality rate of 100%.

In the case of `CCSc1cc(C(F)(F)F)ccc1-c1cn(-c2ccc(OC(F)(F)F)cc2)nn1` [Compound 5-1], the insect mortality rate was determined as 100%.

`CCS(=O)(=O)c1cc(C(F)(F)F)ccc1-c1cn(-c2ccc(OC(F)(F)F)cc2)nn1` [Compound 5-2] yielded an insect mortality rate of 100%.

The next data set relates to Culex pipiens. In words: Efficacy test against Culex pipiens. The conditions noted are these: 2 ppm; first-instar larvae; after 1 day. In kind it is in vivo. The method, then:
as §1, §2
Emulsion (I) was diluted with water so that the concentration of the compound of the present invention reaches 2 ppm to prepare a chemical solution for test. 20 first-instar larvae of Culex pipiens were released into 100 ml of the chemical solution for test, then the number of dead insects was calculated after 1 day was passed, and the insect mortality rate was calculated by the formula. The test was repeated twice.
The molecule `CCS(=O)(=O)c1cc(C(F)(F)F)ccc1-n1cc(-c2ccc(OC(F)(F)F)cc2)cn1` [Compound 1-14] came in with an insect mortality rate of 100%.

In turn, `CCS(=O)(=O)c1cc(C(F)(F)F)ccc1-n1ncc(-c2ccc(OC(F)(F)F)cc2)c1C` [Compound 1-19] displayed an insect mortality rate of 100%.

Molecule `CCS(=O)(=O)c1cc(C(F)(F)F)ccc1-n1ncc(-c2ccc(C(F)(F)F)nc2)c1C` [Compound 1-24] registered an insect mortality rate of 100%.

These data come from patent publication US10548316B2, “Diarylazole compound and harmful organism control agent” (Nippon Soda Co., Ltd., priority 2015, dated 2020).
